These are literature values, as cited in patent US11053524B2, “Microorganisms having putrescine productivity and process for producing putrescine using the same” (CJ CHEILJEDANG CORPORATION, priority 2013, dated 2021).

As a reminder, the Km is the concentration of substrate that gives half-maximal velocity.

In one data set the target is PotFGHI (Escherichia coli, UniProt P31133). The settings on record: read-out: Km of putrescine uptake.
Another data set addresses potABCD (Escherichia coli, UniProt P0AFK9). The settings on record: read-out: Km of putrescine uptake.
For a further data set, the target named is potE (Escherichia coli, UniProt P0AAF1). As to conditions: read-out: Km of putrescine uptake.
The next data set deals with puuP (Escherichia coli, UniProt P76037). The settings on record: read-out: Km of putrescine uptake.
Sequence of puuP (P76037 whole entry): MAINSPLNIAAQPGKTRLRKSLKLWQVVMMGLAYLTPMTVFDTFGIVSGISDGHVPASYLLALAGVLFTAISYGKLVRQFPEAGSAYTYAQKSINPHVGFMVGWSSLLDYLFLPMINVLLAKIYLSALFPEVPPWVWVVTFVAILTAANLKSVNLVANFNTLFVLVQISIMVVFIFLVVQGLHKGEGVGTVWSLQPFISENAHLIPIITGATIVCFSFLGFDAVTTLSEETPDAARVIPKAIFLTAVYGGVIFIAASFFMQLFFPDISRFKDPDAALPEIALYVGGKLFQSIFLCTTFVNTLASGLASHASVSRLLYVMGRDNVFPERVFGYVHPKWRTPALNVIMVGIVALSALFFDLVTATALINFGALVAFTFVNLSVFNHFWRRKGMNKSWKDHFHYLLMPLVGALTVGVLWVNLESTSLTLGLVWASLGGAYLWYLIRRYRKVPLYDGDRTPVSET

Sequence of potE (P0AAF1 whole entry): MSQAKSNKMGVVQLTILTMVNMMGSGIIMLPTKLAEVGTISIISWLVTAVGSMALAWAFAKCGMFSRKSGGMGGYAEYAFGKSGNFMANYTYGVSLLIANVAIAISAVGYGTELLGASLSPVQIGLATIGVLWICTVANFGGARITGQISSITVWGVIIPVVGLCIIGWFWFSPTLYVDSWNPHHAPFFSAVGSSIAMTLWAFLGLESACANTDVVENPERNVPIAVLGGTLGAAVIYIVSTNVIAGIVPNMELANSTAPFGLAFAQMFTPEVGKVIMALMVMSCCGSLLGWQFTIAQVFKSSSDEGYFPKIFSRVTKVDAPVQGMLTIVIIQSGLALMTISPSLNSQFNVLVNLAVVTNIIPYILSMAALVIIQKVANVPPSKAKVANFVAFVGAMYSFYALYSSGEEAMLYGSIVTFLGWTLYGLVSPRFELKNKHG
Sequence of PotFGHI (P31133 27-370): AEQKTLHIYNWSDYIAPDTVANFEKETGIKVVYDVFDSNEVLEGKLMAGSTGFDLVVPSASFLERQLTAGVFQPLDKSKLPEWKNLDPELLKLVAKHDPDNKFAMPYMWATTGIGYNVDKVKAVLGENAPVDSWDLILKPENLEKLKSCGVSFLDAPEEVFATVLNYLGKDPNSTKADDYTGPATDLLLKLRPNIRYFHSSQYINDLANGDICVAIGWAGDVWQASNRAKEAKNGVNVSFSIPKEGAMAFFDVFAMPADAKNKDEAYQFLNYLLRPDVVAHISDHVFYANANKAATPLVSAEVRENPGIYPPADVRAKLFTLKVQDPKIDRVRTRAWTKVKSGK
Sequence of potABCD (P0AFK9 24-348): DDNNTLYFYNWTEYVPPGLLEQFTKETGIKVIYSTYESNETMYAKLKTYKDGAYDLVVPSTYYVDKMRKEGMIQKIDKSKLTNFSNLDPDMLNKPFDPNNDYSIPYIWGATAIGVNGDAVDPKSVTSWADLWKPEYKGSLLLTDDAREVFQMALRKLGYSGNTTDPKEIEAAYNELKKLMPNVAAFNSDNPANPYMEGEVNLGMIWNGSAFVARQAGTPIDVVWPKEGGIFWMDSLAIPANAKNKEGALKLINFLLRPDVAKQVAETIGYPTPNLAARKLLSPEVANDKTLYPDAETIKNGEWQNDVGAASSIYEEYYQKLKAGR

On to `NCCCCN` [putrescine, 1,4-butanediamine], for which the Km at PotFGHI was 500 µM; at potABCD it was 1500 µM; on potE it was 1800 µM; at puuP it was 3700 µM. Also, the “putrescine concentration to which the cell is sensitive” value with yeast cell is 90 mM. The “putrescine concentration to which the cell is resistant” value with yeast cell (yeast cell over-expressing TPO5 gene) was 120 mM.
